3 compounds from article PMC4897788, “Design, biological evaluation and 3D QSAR studies of novel dioxin-containing pyrazoline derivatives with thiourea skeleton as selective HER-2 inhibitors” (Scientific Reports, 2016) can be followed below.

What is called GI50 is the concentration giving 50% growth inhibition. As a reminder, the IC50 is the concentration at which inhibition is half-maximal. High values mean weaker potency in that assay, low ones greater potency in that assay.

Series [1] deals with MDA-MB-453 human breast cancer cell line. Kind of series: Anti-proliferation assay (MTT), MDA-MB-453. It is filed as cell-based. The conditions noted are these: 24 h. On the procedure: (§1) MCF-7 human breast cancer cells was cultured in DMEM/10% fetal bovine serum, in 5% CO2 water saturated atmosphere at 37 °C. MDA-MB-453 human breast cancer cells was cultured in L-15 medium in 100% air at 37 °C. Cell suspensions (10000/mL) were prepared and 100 μL/well dispensed into 96-well plates (Costar) giving 1000 cells/well. The plates were returned to the incubator for 24 h to allow the cells to reattach. These compounds were initially prepared at 20 mM in DMSO. Aliquots (200 μL) were diluted into 20 mL culture medium giving 200 μM, and 10 serial dilutions of 3× prepared. Aliquots (100 μL) of each dilution were added to the wells, giving doses ranging from 100 μM to 0.005 μM. After a further incubated at 37 °C for 24 h in a humidified atmosphere with 5% CO2, the cell viability was assessed by the conventional 3-(4,5-dimethylthiazol-2-yl)-2,5-diphenyltetrazolium bromide (MTT) reduction assay and carried out strictly according to the manufacturer instructions (Sigma). The absorbance at 590 nm was recorded using LX300 Epson Diagnostic micro-plate reader. Then GI50 was calculated using SPSS 13.0 software.

In series [2] the test system is MCF-7 human breast cancer cell line. Put plainly: Anti-proliferation assay (MTT), MCF-7. Format: cell-based. As to conditions: MCF7, 24 h. On the procedure: as §1
Another series addresses T1, VEGFR-2 (Homo sapiens, UniProt P35968).
T1 construct: either the phosphorylated or nonphosphorylated form of the VEGFR-2 kinase domain
Put plainly: VEGFR-2 inhibitory assay. Format: biochemical. On the procedure:
In a 96-well plate, 5 nM/L of either the phosphorylated or nonphosphorylated form of the VEGFR-2 kinase domain was incubated with selected compounds (10-point titration ranging from 4 μM to 0.1 μM), 1 μM/L gastrin substrate, 20 mM/L Tris-HCl, pH 7.5, 10 mM/L MgCl2, 100 mM/L NaCl, 1.5 mM/L EGTA, 1 mM/L DTT, 0.2 mM/L sodium orthovanadate, and 20 μg/mL BSA for 30 min at 25 °C. ATP was added at a final concentration of 11.8 μM and incubated for 60 min at room temperature. Eu-labeled antiphosphotyrosine pT66 antibody (Perkin- Elmer) was then used for detection. The fluorescence at 665 nM was measured with a Wallac Victor plate reader using a time delay of 50 μs. The experiment was performed for three independent times and in triplicate each time.

Another series has as its target T2, FAK (Homo sapiens, UniProt Q05397).
T2 construct: human-recombinant full-length FAK
Kind of series: FAK inhibitory assay (Kinase-Glo). Format: biochemical. On the procedure:
Selected compounds were tested against FAK. In a typical study, human-recombinant full-length FAK was incubated in kinase buffer containing ATP and the substrate for 4 h at room temperature with or without the presence of the corresponding coumpounds. The final concentration of drug as 100, 30, 10, 3 μg/mL. The remaining ATP in solution was then quantified utilizing the Kinase-Glo-luminescence kit (Promega).

For a further series, the target named is T3, HER-3 (Homo sapiens, UniProt P21860).
T3 construct: HER-3 cytoplasmic domain (HER-3-CD, amino acids 665–1339); His6 (N); made in house
T3 sequence (P21860 665-1339): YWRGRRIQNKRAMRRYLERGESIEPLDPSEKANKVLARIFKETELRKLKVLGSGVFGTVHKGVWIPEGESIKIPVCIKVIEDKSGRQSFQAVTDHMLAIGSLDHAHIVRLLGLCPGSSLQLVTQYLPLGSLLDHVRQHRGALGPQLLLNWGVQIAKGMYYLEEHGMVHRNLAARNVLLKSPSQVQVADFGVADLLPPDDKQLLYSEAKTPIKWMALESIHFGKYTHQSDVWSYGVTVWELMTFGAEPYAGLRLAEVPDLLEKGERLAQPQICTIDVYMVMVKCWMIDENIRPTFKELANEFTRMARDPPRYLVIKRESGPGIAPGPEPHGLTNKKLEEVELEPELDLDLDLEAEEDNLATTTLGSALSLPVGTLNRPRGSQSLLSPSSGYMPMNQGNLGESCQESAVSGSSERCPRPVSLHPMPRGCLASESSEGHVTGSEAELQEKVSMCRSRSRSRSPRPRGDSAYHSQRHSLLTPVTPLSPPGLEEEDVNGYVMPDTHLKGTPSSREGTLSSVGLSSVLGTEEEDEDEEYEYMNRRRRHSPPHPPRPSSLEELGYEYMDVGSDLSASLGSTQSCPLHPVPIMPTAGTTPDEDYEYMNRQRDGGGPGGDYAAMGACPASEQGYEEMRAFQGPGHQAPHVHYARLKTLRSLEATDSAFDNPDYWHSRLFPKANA
Kind of series: HER-3 inhibitory assay. It is filed as biochemical. On the procedure: A sequence that encodes (His)6 was located at the 5′ upstream to the HER-2 and EGFR sequences. Sf-9 cells were infected for 3 days for protein expression. Sf-9 cell pellets were solubilized at 0 °C in a buffer at pH 7.4 containing 50 mM HEPES, 10 mM NaCl, 1% Triton, 10 μM ammonium molybdate, 100 μM sodium vanadate, 10 μg/mL aprotinin, 10 μg/mL leupeptin, 10 μg/mL pepstatin, and 16 μg/mL benzamidine, HCl for 20 min followed by 20 min centrifugation. Crude extract supernatant was passed through an equilibrated Ni–NTA superflow packed column and washed with 10 mM and then 100 mM imidazole to remove nonspecifically bound material. Histidine-tagged proteins were eluted with 250 and 500 mM imidazole and dialyzed against 50 mM NaCl, 20 mM HEPES, 10% glycerol and 1 μg/mL each of aprotinin, leupeptin, and pepstatin for 2 h. The entire purification procedure was performed at 4 °C or on ice.
A 1.8 Kb cDNA encoded for human HER-3 cytoplasmic domain (HER-3-CD, amino acids 665–1339) was applied to perform the experiment using the same method as EGFR/HER-2.

The nature of series [3]: Cytotoxicity test (MTT), NIH-3T3. It is filed as cell-based. As to conditions: mouse, NIH-3T3 mouse embryonic fibroblast cells, NIH3T3. On the procedure:
The cytotoxic activity in vitro was measured against mouse fibroblast NIH-3T3 cell using the MTT assay. Cells were cultured in a 96-well plate at a density of 5 × 10^5 cells and different concentrations of compounds were respectively added to each well. The incubation was permitted at 37 °C, 5% CO2 atmosphere for 24 h before the cytotoxicity assessments. 20 μL MTT reagent (4 mg/mL) was added per well 4 h before the end of the incubation. Four hours later, the plate was centrifuged at 1200 rcf for 5 min and the supernatants were removed, each well was added with 200 μL DMSO. The absorbance was measured at a wavelength of 490 nm (OD 490 nm) on an ELISA microplate reader. Three replicate wells were used for each concentration and each assay was measured three times, after which the average of IC50 was calculated. The cytotoxicity of each compound was expressed as the concentration of compound that reduced cell viability to 50% (IC50).

A further series relates to human erythrocytes. Kind of series: Hemolysis test. Format: cell-based. The conditions noted are these: lytic concentration 30%. On the procedure: Hemolytic activity was assayed using fresh capillary human blood. Erythrocytes were collected by centrifuging the blood three times in chilled phosphate buffered saline (PBS at 4 °C) at 1000 × g for 10 min. The final pellet was resuspended in PBS to give a 2% w/v solution. Using a microtitre plate, 100 μL of the erythrocyte solution was added to dextran, PLL, stearyl-PLL or stearyl-PLL+ LDL (1–1000/μg/mL) in a volume of […]. Samples were then incubated for 3 h and the microtitre plate was centrifuged then at 1000 × g for 10 min and the supernatants (100 μL) transferred into a new microtitre plate. Hemoglobin release was determined spectrophotometrically using a microtitre plate reader (absorbance at 550 nm). Results were expressed as the amount of released hemoglobin induced by the compounds as a percentage of the total. Hemolysis test was tested according to the guide of biological evaluation of medical device (SFDA, China).

The next series deals with EGFR (Homo sapiens, UniProt P00533). Kind of series: EGFR autophosphorylation kinase assay (DELFIA/time-resolved fluorometry).
Chain of EGFR (P00533 669-1210): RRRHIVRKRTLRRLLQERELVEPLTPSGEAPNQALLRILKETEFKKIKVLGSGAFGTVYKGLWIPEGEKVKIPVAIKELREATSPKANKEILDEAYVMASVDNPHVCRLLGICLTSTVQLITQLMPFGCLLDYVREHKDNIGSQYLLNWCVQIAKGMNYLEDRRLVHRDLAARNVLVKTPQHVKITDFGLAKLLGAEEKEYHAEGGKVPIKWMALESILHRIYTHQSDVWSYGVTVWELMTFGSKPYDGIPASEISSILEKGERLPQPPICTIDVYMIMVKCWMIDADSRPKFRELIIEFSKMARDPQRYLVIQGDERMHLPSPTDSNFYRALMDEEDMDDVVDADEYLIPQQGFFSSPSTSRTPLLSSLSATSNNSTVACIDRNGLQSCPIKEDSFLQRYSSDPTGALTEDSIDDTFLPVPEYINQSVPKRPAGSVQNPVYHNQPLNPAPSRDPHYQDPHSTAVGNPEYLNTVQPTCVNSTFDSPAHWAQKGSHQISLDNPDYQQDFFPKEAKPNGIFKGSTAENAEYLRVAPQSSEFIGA
In a further series the target is HER-2 (Homo sapiens, UniProt P04626). Kind of series: HER-2 autophosphorylation kinase assay (DELFIA/time-resolved fluorometry). The conditions noted are these: for SI EGFR/HER-2: selectivity index, IC50 EGFR/IC50 HER-2.
Chain of HER-2 (P04626 676-1245): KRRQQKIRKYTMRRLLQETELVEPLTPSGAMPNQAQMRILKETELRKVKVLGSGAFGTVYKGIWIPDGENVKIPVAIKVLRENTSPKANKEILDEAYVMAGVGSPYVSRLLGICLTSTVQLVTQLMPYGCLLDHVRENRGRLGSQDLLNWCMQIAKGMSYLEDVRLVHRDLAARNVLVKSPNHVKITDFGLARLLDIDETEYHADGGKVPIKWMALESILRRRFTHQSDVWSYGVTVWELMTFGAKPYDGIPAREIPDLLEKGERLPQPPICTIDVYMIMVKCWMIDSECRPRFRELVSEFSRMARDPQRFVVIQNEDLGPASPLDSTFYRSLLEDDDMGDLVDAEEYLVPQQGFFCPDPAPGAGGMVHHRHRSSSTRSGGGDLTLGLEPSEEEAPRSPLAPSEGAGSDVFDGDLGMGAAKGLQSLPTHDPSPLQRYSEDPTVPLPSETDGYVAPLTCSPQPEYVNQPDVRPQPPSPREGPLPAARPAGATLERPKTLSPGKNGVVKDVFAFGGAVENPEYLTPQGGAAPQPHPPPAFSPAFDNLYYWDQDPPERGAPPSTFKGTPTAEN

T2 sequence (Q05397 whole entry): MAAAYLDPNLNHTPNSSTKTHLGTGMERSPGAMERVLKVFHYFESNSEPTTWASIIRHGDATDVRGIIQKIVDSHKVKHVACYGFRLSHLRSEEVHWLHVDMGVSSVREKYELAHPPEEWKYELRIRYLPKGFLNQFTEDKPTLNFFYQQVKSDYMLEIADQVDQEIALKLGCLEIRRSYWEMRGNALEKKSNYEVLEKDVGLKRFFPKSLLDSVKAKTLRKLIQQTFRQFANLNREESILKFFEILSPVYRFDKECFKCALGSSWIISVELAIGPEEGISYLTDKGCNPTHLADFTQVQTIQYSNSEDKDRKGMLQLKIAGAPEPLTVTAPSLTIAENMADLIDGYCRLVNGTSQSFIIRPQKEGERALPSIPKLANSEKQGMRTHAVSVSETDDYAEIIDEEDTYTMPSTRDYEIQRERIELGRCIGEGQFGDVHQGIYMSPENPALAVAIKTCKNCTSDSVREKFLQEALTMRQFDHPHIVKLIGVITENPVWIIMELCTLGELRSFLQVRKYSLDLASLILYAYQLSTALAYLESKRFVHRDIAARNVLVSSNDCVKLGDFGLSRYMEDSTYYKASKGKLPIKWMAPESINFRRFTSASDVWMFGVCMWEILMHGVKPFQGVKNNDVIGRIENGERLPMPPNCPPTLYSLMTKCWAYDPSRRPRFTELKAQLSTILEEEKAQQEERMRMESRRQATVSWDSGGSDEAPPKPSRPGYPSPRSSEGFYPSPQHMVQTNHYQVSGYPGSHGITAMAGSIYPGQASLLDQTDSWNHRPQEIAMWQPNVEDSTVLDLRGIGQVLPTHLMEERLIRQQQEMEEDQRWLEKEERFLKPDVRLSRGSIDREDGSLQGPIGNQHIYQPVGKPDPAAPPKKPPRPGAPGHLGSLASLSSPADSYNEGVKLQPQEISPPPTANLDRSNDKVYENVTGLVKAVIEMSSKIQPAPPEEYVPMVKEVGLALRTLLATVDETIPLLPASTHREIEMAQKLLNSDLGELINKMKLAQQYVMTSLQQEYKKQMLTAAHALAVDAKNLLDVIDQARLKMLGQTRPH
T1 sequence (P35968 834-1162 limits assumed, species assumed): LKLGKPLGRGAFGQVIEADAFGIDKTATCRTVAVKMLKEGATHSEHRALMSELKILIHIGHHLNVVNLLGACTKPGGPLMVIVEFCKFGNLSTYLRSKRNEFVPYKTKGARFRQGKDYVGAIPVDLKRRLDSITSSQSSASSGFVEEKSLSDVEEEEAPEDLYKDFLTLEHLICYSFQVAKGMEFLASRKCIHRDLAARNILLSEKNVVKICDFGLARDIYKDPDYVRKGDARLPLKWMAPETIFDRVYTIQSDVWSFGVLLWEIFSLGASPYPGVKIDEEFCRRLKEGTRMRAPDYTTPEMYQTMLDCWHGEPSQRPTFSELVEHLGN
Description for HER-2: Both EGFR and HER-2 kinase assays were set up to assess the level of autophosphorylation based on DELFIA/Time-Resolved Fluorometry. […] Then, 10 μL of 5× buffer (containing 20 mM HEPES, 2 mM MnCl2, 100 μM Na3VO4, and 1 mM DTT) and 20 μL of 0.1 mM ATP-50 mM MgCl2 was added for 1 h. Positive and negative controls were included in each plate by incubation of enzyme with or without ATP-MgCl2. At the end of incubation, liquid was aspirated and plates were washed three times with wash buffer. A 75 μL (400 ng) sample of europium-labeled anti-phosphotyrosine antibody was added to each well for another 1 h of incubation. […] The IC50 was obtained from curves of percentage inhibition with eight concentrations of compound. As the contaminants in the enzyme preparation are fairly low, the majority of the signal detected by the anti-phosphotyrosine antibody is from EGFR or HER-2. The experiment was performed for three independent times and in triplicate each time.

Turning to `COc1ccc(C2CC(c3ccc4c(c3)OCCO4)=NN2C(N)=S)cc1` (stereo not drawn) [Compound C10, 3-(2,3-dihydrobenzo[b][1,4]dioxin-6-yl)-5-(4-methoxyphenyl)-4,5-dihydro-1H-pyrazole-1-carbothioamide], the concentration for 50% growth inhibition (GI50) in [1] stood at 0.25 ± 0.02 µM; in series [2], 18.2 ± 1.71 µM. In addition, the half-inhibitory concentration (IC50) against VEGFR-2 was 6.91 ± 0.64 µM; against FAK, 64 ± 5.95 µM; on HER-3, 10.7 ± 0.96 µM; at EGFR, 37.9 ± 3.75 µM; at HER-2, 0.08 ± 0.006 µM. Besides, the 50% growth inhibitory concentration (GI50) at 24 h in series [3] is 204 ± 3.05 µM. In the series on human erythrocytes, the “Hemolysis LC30” value was above 10000 µg/mL. Also, the “SI EGFR/HER-2” value on HER-2 was 474.4.

Regarding `Cc1ccc(C2CC(c3ccc4c(c3)OCCO4)=NN2C(N)=S)cc1` (stereo not drawn) [Compound C9, 3-(2,3-dihydrobenzo[b][1,4]dioxin-6-yl)-5-(p-tolyl)-4,5-dihydro-1H-pyrazole-1-carbothioamide], the 50% growth inhibitory concentration (GI50) came to 1.38 ± 0.12 µM in series [1] and 56.2 ± 5.41 µM in [2]. For the same compound, the half-inhibitory concentration (IC50) against VEGFR-2 is 11.5 ± 1.07 µM; on FAK, 36.1 ± 3.21 µM; against HER-3, 6.32 ± 0.58 µM; on EGFR it was 65.2 ± 5.88 µM; at HER-2, 0.37 ± 0.03 µM. In [3], this compound had a GI50 at 24 h of 199.1 ± 1.6 µM. The “Hemolysis LC30” value in the series on human erythrocytes is above 10000 µg/mL. At HER-2, the “SI EGFR/HER-2” value was found to be 176.1.

In the case of `NC(=S)N1N=C(c2ccc3c(c2)OCCO3)CC1c1ccc(Br)cc1` (stereo not drawn) [Compound C13, 5-(4-bromophenyl)-3-(2,3-dihydrobenzo[b][1,4]dioxin-6-yl)-4,5-dihydro-1H-pyrazole-1-carbothioamide], the 50% growth inhibitory concentration (GI50) was determined as 3.24 ± 0.3 µM in [1] and 123 ± 11.2 µM in [2]. Also, the IC50 at VEGFR-2 came to 25.8 ± 2.41 µM; at FAK, 36.5 ± 3.42 µM; against HER-3 it was 2.46 ± 0.23 µM; against EGFR, 82 ± 7.84 µM; on HER-2 it was 0.8 ± 0.07 µM. For the same compound, growth in [3] was halved (GI50 at 24 h) at 148 ± 2.02 µM. In addition, the “Hemolysis LC30” value with human erythrocytes is above 10000 µg/mL. The “SI EGFR/HER-2” value on HER-2 worked out at 102.5.
